Patent US10358453B2, “Antiviral compounds” (priority 2015, dated 2019)
pEC50, pIC50: −log10 of the molar value. Read-outs that look alike come from different tables or passages of the source.

Key:
[1] = tested on: Respiratory Syncytial Virus (RSV) long strain; experiment: RSV antiviral assay (CPE reduction, CCK-8 readout); assay type: cell-based; settings: human respiratory syncytial virus
Method: CPE reduction assays are performed as described by Sidwell and Huffman et al., Appl. Microbiol. […] Compounds are added into 384-well cell plates by Labcyte POD 810 Plate Assembler system. Each of the test compounds is provided to duplicate wells of a 384-well cell plate at final concentrations starting from 100 μM or 1 μM using 1/3 stepwise dilutions for 9 points. Quick-thaw Respiratory Syncytial Virus (RSV) long strain (ATCC#VR-26) stock in a 37° C. water bath. Place on ice until ready to use. Viruses are diluted to the concentration of 100 TCID50/30 μL with medium and 30 μl diluted RSV are added into related wells of 384-well cell plates. For each plate, sixteen wells are set aside as uninfected, untreated cell controls (CC), and nine wells per test plate receive virus only as a control for virus replication (VC). The final DMSO concentration of all wells is 1%. Place the plates at 37° C., 5% CO2 for 5 days.
After 5 days incubation, observe the CPE of cells in all wells. […] Six μl of cell counting kit-8 reagent (CCK-8, Dojindo Molecular Technologies Inc., CK04-20) are added to each well, which allows colorimetric assays to determine the number of viable cells through the dehydrogenase activity detection. After 3-4 hour incubation, the absorbance of each well is measured with a spectrophotometric plate reader at 450 nm wavelength, using a 630 nm filter as background according to manufacturer's instruction.

[2] = target: recombinant RSV complex (Human respiratory syncytial virus A, UniProt P28887); experiment: RSV polymerase inhibition assay; assay type: biochemical; settings: 2 h at 30° C., Table E = <1 μM, Table F = <50 μM
Chain of recombinant RSV complex (P28887 whole entry): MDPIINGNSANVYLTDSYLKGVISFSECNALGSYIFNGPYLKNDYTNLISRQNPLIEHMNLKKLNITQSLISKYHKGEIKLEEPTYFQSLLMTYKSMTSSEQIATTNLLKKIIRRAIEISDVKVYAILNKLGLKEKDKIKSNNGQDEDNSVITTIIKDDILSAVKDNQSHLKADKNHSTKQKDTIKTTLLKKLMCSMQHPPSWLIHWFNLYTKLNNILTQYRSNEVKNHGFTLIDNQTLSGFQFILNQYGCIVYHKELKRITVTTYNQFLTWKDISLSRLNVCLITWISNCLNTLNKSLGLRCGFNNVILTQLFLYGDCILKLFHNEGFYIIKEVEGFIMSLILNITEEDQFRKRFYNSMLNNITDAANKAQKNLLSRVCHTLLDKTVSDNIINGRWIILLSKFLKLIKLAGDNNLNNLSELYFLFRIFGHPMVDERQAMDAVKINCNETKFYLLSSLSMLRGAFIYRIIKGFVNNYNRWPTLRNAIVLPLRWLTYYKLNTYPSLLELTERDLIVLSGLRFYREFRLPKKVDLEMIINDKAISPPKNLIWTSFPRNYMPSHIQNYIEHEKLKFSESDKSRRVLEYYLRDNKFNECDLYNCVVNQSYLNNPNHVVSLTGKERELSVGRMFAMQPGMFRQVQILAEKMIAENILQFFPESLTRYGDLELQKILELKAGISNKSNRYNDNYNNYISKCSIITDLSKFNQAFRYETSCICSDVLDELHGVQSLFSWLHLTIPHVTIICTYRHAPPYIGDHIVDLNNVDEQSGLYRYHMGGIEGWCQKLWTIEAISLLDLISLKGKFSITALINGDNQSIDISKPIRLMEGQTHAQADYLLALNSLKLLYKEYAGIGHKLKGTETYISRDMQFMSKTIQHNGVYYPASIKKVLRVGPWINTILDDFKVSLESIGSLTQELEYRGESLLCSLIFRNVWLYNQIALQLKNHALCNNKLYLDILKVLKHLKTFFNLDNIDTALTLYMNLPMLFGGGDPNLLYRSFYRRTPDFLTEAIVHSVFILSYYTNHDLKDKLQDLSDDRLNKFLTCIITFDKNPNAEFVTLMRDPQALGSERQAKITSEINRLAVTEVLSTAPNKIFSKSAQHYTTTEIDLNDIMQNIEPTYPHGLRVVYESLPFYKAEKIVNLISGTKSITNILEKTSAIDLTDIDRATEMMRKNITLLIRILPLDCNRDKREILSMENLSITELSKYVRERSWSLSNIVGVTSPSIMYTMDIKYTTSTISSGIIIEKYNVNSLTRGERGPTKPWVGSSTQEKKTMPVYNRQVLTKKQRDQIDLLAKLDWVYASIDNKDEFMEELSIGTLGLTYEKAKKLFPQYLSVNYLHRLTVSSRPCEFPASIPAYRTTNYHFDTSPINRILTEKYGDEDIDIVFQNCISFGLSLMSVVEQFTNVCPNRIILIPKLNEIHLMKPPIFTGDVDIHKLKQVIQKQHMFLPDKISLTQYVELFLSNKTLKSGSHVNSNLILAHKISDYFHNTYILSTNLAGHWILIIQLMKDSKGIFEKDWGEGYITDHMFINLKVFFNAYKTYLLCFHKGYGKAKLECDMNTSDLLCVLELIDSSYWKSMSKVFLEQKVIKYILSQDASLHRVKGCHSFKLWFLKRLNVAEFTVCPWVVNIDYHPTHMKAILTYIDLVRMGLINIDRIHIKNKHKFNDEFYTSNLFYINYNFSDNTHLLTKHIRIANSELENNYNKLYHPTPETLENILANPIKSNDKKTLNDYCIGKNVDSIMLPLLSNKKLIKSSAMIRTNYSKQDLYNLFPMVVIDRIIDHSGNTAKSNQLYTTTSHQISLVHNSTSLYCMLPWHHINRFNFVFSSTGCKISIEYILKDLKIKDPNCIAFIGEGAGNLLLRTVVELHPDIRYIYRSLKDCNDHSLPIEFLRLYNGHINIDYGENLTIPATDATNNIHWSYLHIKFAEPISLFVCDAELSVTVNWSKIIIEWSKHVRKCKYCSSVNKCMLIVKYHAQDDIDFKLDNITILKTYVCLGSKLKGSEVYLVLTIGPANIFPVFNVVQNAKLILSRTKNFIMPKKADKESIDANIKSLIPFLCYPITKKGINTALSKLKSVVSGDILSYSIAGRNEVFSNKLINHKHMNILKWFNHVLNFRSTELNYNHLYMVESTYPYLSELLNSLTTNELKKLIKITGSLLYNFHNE
Chain of recombinant RSV complex (P03421 whole entry, further chain): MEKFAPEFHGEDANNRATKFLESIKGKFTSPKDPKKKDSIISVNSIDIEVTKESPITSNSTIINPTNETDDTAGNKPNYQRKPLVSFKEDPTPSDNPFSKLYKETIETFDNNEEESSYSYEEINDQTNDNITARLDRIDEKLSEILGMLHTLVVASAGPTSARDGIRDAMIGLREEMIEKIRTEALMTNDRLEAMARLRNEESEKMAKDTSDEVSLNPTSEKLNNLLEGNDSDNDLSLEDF
Outline: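 10 nM recombinant RSV polymerase complex in Tris-HCl pH7.5, 6 mM MgCl2 with RNA oligonucleotides and radionucleotides, incubated 2 h at 30° C with rising inhibitor concentrations. Stopped with EDTA; radiolabelled RNA product counted by scintillation; IC50 from sigmoidal non-linear regression.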

[3] = tested on: RSV subgenomic replicon 395 HeLa and APC126; experiment: RSV subgenomic replicon assay (Renilla luciferase); assay type: cell-based; settings: human respiratory syncytial virus; RSV replicon cells (395 HeLa 7 days or APC126 3 days); Table G = less than 1 μM, Table H = equal to or higher than 1 μM and less than 50 μM
Outline: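 Replicon cells (RSV with SH, G, F replaced by blasticidin resistance; 395 HeLa or BHK-derived APC126) exposed to 9-point 1:3 compound dilutions in 1% DMSO for 7 days (395 HeLa) or 3 days (APC126) at 37 °C. Renilla luciferase luminescence read; EC50 is concentration cutting signal 50% versus untreated cells.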

[4] = Cytotoxicity determination (CCK-8, without addition of virus); assay type: cell-based; settings: human, HEp-2 cells (uninfected), no virus, Table C = greater than 100 μM, Table D = equal to or less than 100 μM and greater than 10 μM
Outline: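 HEp-2 cells, no virus, exposed to compound from 100 μM in ½ serial dilutions (7 points, duplicate, 1% DMSO) for 5 days at 37° C, 5% CO2. Viability by CCK-8 (3-4 h) optical density; CC50 calculated.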

[5] = 120 h, HEp-2 cells, RSV long strain, 5 days, Table A = less than 1 μM, Table B = equal to or higher than 1 μM and less than 50 μM, read-out: EC50
[6] = 10 nM recombinant RSV complex, read-out: IC50

| Compound | pEC50 [1, 5] | pIC50 [2, 6] | pEC50 [3] | pEC50 ([1]; HEp-2, 120 h) | CC50 at 5 days [4] [nM] | pIC50 ([2]; IC50, 10 nM recombinant RSV complex) |
| --- | --- | --- | --- | --- | --- | --- |
| COc1cc(C(=O)NCC(O)(c2cc3c(c(-c4ccc(F)cc4)n2)OCC3(N)CO)C(F)(F)F)cc2cccnc12 (single isomer, unassigned) [Compound 2] | > 6.00 | > 6.00 | > 6.00 | – | – | – |
| COc1cc(C(=O)NCC(O)(c2cc3c(c(-c4ccc(F)cc4)n2)OCC3(N)CO)C(F)(F)F)cc2cccnc12 (centres unmarked) [Compound 1] | – | > 6.00 | > 6.00 | > 6.00 | 10000 to 100000 | – |
| COc1cc(C(=O)NCC(O)(c2cc3c(c(-c4ccc(F)cc4)n2)OCC3(C)N)C(F)(F)F)cc2c1NC(=O)C2=O (centres unmarked) [Compound 10] | 4.30 to 6.00 | > 4.30 | 4.30 to 6.00 | – | 10000 to 100000 | – |
| CC1(N)COc2c1cc(C(O)(CNC(=O)c1ccc(OC3CC3)c(OCCO)c1)C(F)(F)F)nc2-c1ccc(F)cc1 (centres unmarked) [Compound 12] | > 6.00 | > 6.00 | > 6.00 | – | – | – |
| COc1cc(C(=O)NC[C@@](O)(c2cc3c(c(-c4ccc(F)cc4)n2)OC[C@@]3(C)NC(C)=N)C(F)(F)F)ccc1OC[C@@H](C)O [Compound 130] | – | > 6.00 | > 6.00 | – | > 100000 | – |
| COc1cc(C(=O)NC[C@@](O)(c2cc3c(c(-c4ccc(F)cc4)n2)NC[C@@]3(C)N)C(F)(F)F)ncc1OCCO [Compound 75] | – | > 6.00 | > 6.00 | – | 10000 to 100000 | – |
| Cn1nc(C(F)(F)F)cc1C(=O)NCC(O)(c1cc2c(c(-c3ccc(F)cc3)n1)OCC2(C)N)C(F)(F)F (centres unmarked) [Compound 114] | – | > 6.00 | > 6.00 | – | 10000 to 100000 | – |
| COc1cc(C(=O)NC[C@@](O)(c2cc3c(c(-c4ccc(F)cc4)n2)OC[C@]3(N)C2CC2)C(F)(F)F)ccc1OC[C@@H](C)O (single isomer, unassigned) [Compound 106] | – | > 6.00 | > 6.00 | – | 10000 to 100000 | – |
| CC1(N)COc2c1cc(C(O)(CNC(=O)c1ccc(CCO)c(OC3CC3)c1)C(F)(F)F)nc2-c1ccc(F)cc1 (centres unmarked) [Compound 49] | – | > 6.00 | > 6.00 | – | 10000 to 100000 | – |
| C[C@@H](O)COc1ccc(C(=O)NC[C@@](O)(c2cc3c(c(-c4ccc(F)cc4)n2)OC[C@@]3(C)N)C(F)(F)F)cc1Cl [Compound 113] | – | > 6.00 | > 6.00 | – | 10000 to 100000 | – |
| COc1cc(C(=O)NC[C@@](O)(c2cc([C@]3(C)CCN3)cc(-c3ccc(F)cc3)n2)C(F)(F)F)ccc1OC[C@@H](C)O (racemic) [Compound 14] | – | > 6.00 | > 6.00 | – | 10000 to 100000 | – |
| COc1cc(C(=O)NCC(O)(c2cc3c(c(-c4ccc(F)cc4)n2)OCC3(C)N)C(F)(F)F)ccc1NC1CC1 (centres unmarked) [Compound 31] | – | > 6.00 | > 6.00 | – | 10000 to 100000 | – |
| COc1cc(C(=O)NC[C@@](O)(c2cc3c(c(-c4ccc(F)cc4)n2)OC[C@@]3(C)NC(N)=O)C(F)(F)F)ccc1OC[C@@H](C)O [Compound 132] | – | > 6.00 | > 6.00 | – | 10000 to 100000 | – |
| COc1ccc(C(=O)NCC(O)(c2cc(C(C)(C)N)cc(-c3ccc(F)cc3)n2)C(F)(F)F)cc1OCCO (centres unmarked) [Compound 37] | – | > 6.00 | > 6.00 | – | > 100000 | – |
| COc1ccc(C(=O)NCC(O)(c2cc(C(C)(C)N)cc(-c3ccc(F)cc3)n2)C(F)(F)F)cc1OC[C@@H](C)O (some centres unmarked) [Compound 39] | – | > 6.00 | > 6.00 | – | 10000 to 100000 | – |
| C[C@@]1(N)CNc2c1cc([C@](O)(CNC(=O)c1ccc3c(c1)CC(=O)N3CCO)C(F)(F)F)nc2-c1ccc(F)cc1 [Compound 82] | – | – | > 6.00 | – | > 100000 | > 6.00 |
| COc1cc(C(=O)NCC(O)(c2cc(N3CCNCC3)cc(-c3ccc(F)cc3)n2)C(F)(F)F)ccc1OCCO (centres unmarked) [Compound 138] | – | > 6.00 | 4.30 to 6.00 | – | 10000 to 100000 | – |
| COc1ccc(C(=O)NCC(O)(c2cc3c(c(-c4ccc(F)cc4)n2)OCC3(C)N)C(F)(F)F)nc1OC (centres unmarked) [Compound 112] | – | > 6.00 | > 6.00 | – | 10000 to 100000 | – |
| C[C@@]1(N)CNc2c1cc([C@](O)(CNC(=O)c1cc(OCCO)c3ncccc3c1)C(F)(F)F)nc2-c1ccc(F)cc1 [Compound 81] | – | > 6.00 | > 6.00 | – | 10000 to 100000 | – |
| COc1cc(C(=O)NCC(O)(c2cc(C3(C)CCNCC3)cc(-c3ccc(F)cc3)n2)C(F)(F)F)ccc1OCCO (centres unmarked) [Compound 117] | – | > 4.30 | 4.30 to 6.00 | – | 10000 to 100000 | – |
| COc1cc(C(=O)NCC(N)(c2cc(C(C)(C)N)cc(-c3ccc(F)cc3)n2)C(F)(F)F)ccc1OCCO (centres unmarked) [Compound 40] | – | > 6.00 | > 6.00 | – | > 100000 | – |
| COc1cc(C(=O)NC[C@@](O)(c2cc3c(c(-c4ccc(F)cc4)n2)OC[C@@]3(C)N)C(F)(F)F)cc(OC)c1CCCO [Compound 65] | – | > 6.00 | > 6.00 | – | 10000 to 100000 | – |
| COc1cc(C(=O)NCC(O)(c2cc3c(c(-c4ccc(F)cc4)n2)OCC3(C)N)C(F)(F)F)ccc1OC(C)(C)CO (centres unmarked) [Compound 125] | – | > 6.00 | > 6.00 | – | 10000 to 100000 | – |
